Source: paper PMC5561493 (Journal of Clinical Pharmacology, 2017)
Values joined by “and” are separate entries in the source; they are usually repeats but may differ in a detail not shown here. Equal entries are not always repeated. Where two headings read alike, the source gives them in different places.

How the values were obtained:
[1] = system: blood 20S proteasome activity; conditions: 1.2 and 1.6 mg/m^2 IV; cited from earlier work
[2] = adult patients, cited from earlier work
efflux pumps = conditions: in vitro transport studies; ref Takeda, data on file; cited from earlier work
cytochrome P450 enzymes = conditions: in decreasing order of relative contributions; cited from earlier work
[3] = 1.7 mg/m^2 dose level; cited from earlier work
CYP3A = conditions: coadministration of ketoconazole; cited from earlier work
CYP2C19 = conditions: cited from earlier work
[4] = Population PK analysis of bortezomib in pediatric ALL/AML patients; assay type: in vivo, human; conditions: for half-life: human, plasma, intravenous, 1.3 mg/m^2, half-life, geometric mean (%CV)
[5] = 1.6 mg/m^2 dose level; cited from earlier work
[6] = in vitro transport studies; ref Takeda, data on file; cited from earlier work
[7] = varying grades of renal impairment; cited from earlier work
[8] = final population PK model, bootstrap, 1.3 mg/m^2 IV repeat dose

## CC(C)C[C@H](NC(=O)[C@H](Cc1ccccc1)NC(=O)c1cnccn1)B(O)O [bortezomib]
[1]
  inhibition of blood 20S proteasome activity: Dose‐dependent inhibition
  time of maximal inhibition of blood 20S proteasome activity after dosing: ≤ 1 h
[2]; 1.0 mg/m^2 dose
  BSA-normalized clearance, mean (%CV): 12.9 (70%) L/(h·m^2)
[2]; 1.3 mg/m^2 dose
  BSA-normalized clearance, mean (%CV): 14.9 (63%) L/(h·m^2)
Efflux pumps
  substrate for efflux pumps: not a substrate for efflux pumps
Cytochrome P450 enzymes
  CYP enzymes mediating hepatic microsomal metabolism: primary involvement of CYPs 3A4, 2C19, and 1A2
[3]
  dose-limiting toxicities: Two dose‐limiting toxicities (grade 3 confusion and grade 4 hypotension with fever)
CYP3A
  increase in bortezomib area under the concentration-time curve: 35%
CYP2C19
  effect of omeprazole coadministration on bortezomib PK: did not alter bortezomib PK
[4]; all patients (N = 104), 2-16 y, individual estimates, 1.3 mg/m^2 IV repeat dose
  clearance, geometric mean (%CV): 7.79 (25%) L/(h·m^2)
[4]; all patients (N = 104), sum of V1, V2, V3
  volume of distribution at steady-state, geometric mean (%CV): 834 (39%) L/m^2
[4]; base model
  Interindividual variability (CV) of CL: 41.2%
  Interindividual variability (CV) of Q3: 38.3%
  Interindividual variability (CV) of V1: 50.7%
[4]; final model
  Interindividual variance of CL: 29.7 %CV
  Interindividual variance of Q3: 29.8 %CV
  Interindividual variance of V1: 34.6 %CV
[4]; [8]
  V1 (central volume), population median: 10.0 L
  V2 (peripheral volume 1), population median: 32.5 L
  V3 (peripheral volume 2), population median: 975 L
[4]; final population PK model, power model
  BSA effect on Q3 (exponent): 0.75
[4]; α disposition phase, all patients (N = 104)
  half-life: 0.103 h
[4]; β disposition phase, all patients (N = 104)
  half-life: 1.58 h
[4]; γ (terminal/elimination) disposition phase, all patients (N = 104)
  half-life: 100 h
[4]; patients 2 to 11 years old (N = 62)
  BSA-normalized clearance, mean (%CV): 8.11 (25%) L/(h·m^2) and 8.11 L/(h·m^2)
[4]; patients aged 12 to 16 years (N = 42)
  BSA-normalized clearance, mean (%CV): 7.94 (25%) L/(h·m^2) and 7.94 L/(h·m^2)
[5]
  dose-limiting toxicities: 2 dose‐limiting toxicities of thrombocytopenia
[6]
  apparent permeability: high apparent permeability
[7]
  effect of renal impairment on bortezomib clearance: did not alter bortezomib clearance
